The structures appear in SMILES notation. Where a name gives a salt, the structure may show the parent alone. A value given as a limit tells only on which side of the number the result lay.

The values below come from paper PMC11876671, “Investigating blood–brain barrier penetration and neurotoxicity of natural products for central nervous system drug development” (Scientific Reports, 2025).

The first data set is described as follows: in vitro. Particulars: PAMPA, PAMPA-BBB Pe.
The Papp is a coefficient for how fast a substance crosses the barrier. Higher therefore signals fast passage. As for `C=C(C)[C@@H]1CCC2=CCC[C@@H](C)[C@]2(C)C1`, the Papp stood at 18 ×10⁻⁶ cm/s.

The same data set, now with this note: PAMPA, PAMPA-BBB Pe(10^-6 cm/sec).
`Oc1cc(O)c2c(c1)O[C@H](c1ccc(O)c(O)c1)[C@H](O)C2` [L-EPICATECHIN] came in with a Papp of less than 1 ×10⁻⁶ cm/s.
Same read-out and setting: the same measure for `CO[C@@H]1[C@H](O)[C@@H](CO)O[C@H]1n1cnc2c(=O)[nH]c(N)nc21` [2'-O-METHYLGUANOSINE]: less than 1 ×10⁻⁶ cm/s.

The same data set, now with this note: PAMPA, PAMPA-BBB Pe(10^-6 cm/sec), Table S3: compounds exhibiting low PAMPA-BBB permeability.
`C[C@@H]1CC[C@]2(C)CC[C@]3(C)C(=CC(=O)C4[C@@]5(C)CC[C@@H](O)[C@](C)(C(=O)O)C5CC[C@]43C)C2[C@H]1C` (some centres unmarked) [KETO-B-BOSWELLIC ACID] registered a Papp of less than 1 ×10⁻⁶ cm/s.
As for `O=c1cc(-c2ccc(O)cc2)oc2cc(O)ccc12` [K[…]], the Papp amounted to 2.9 ×10⁻⁶ cm/s.
Still for that read-out and setting: the same measure for `CNc1ncnc2c1ncn2C1OC(CO)C(O)C1O` (centres unmarked) [N-METHYLADENOSINE]: less than 1 ×10⁻⁶ cm/s.
Same read-out and setting: the same measure for `O=C1c2c(O)cc(O)cc2O[C@H](c2cc(O)c(O)c(O)c2)[C@H]1O` [DIHYDROMYRICETIN]: less than 1 ×10⁻⁶ cm/s; for `C[C@@H]1O[C@@H](O[C@@H]2C=C3CC[C@@H]4[C@H](CC[C@]5(C)[C@@H](c6ccc(=O)oc6)CC[C@]45O)[C@@]3(C)CC2)[C@H](O)[C@H](O)[C@H]1O` [PROSCILLARIDIN]: 1.5 ×10⁻⁶ cm/s; for `O=c1cc(-c2ccc(O)c(O)c2)oc2cc(O)cc(O)c12` [LUTEOLIN]: 2.2 ×10⁻⁶ cm/s.
The molecule `O=[N+]([O-])c1ncc[nH]1` [AZOMYCIN] came in with a Papp of less than 1 ×10⁻⁶ cm/s.
Consider `N[C@H](C(=O)O)c1cc(O)cc(O)c1` [DIHYDROXYPHENYLGLYCINE], for which the Papp is less than 1 ×10⁻⁶ cm/s.
Still for that read-out and setting: then `CC(C)=CCC/C(C)=C/CC/C(C)=C/CO` [FARNESOL TRANS,TRANS-FARNESOL], with less than 1 ×10⁻⁶ cm/s; and `O=C(O)c1cc(O)c2c(c1)[C@@H]([C@H]1c3cc(C(=O)O)cc(O)c3C(=O)c3c(O[C@@H]4O[C@H](CO)[C@@H](O)[C@H](O)[C@H]4O)cccc31)c1cccc(O[C@@H]3O[C@H](CO)[C@@H](O)[C@H](O)[C@H]3O)c1C2=O` [SENNOSIDE B], with 3 ×10⁻⁶ cm/s.
Same read-out and setting: the same measure for `Cc1cc(OC(=O)c2c(C)cc(O)cc2O)cc(O)c1C(=O)O` [LECANORIC ACID]: less than 1 ×10⁻⁶ cm/s.
On the same count and under the same terms, then `O=c1ccn([C@@H]2O[C@H](COP(=O)(O)OP(=O)(O)O)[C@@H](O)[C@H]2O)c(=O)[nH]1` [Uridine diphosphate disodium], with less than 1 ×10⁻⁶ cm/s; and `O=C(O)c1cc(O)c(O)c(O)c1` [GALLIC ACID], with less than 1 ×10⁻⁶ cm/s.
In turn, `COc1ccc2[nH]cc(CC(=O)O)c2c1` [5-METHOXYIN[…]] had a Papp of less than 1 ×10⁻⁶ cm/s.
Molecule `C[C@H]([C@H](O)CCC(C)(C)O)[C@H]1CC[C@@]2(O)C3=CC(=O)[C@@H]4C[C@@H](O)[C@@H](O)C[C@]4(C)[C@H]3CC[C@]12C` [ECDYSONE] showed a Papp of less than 1 ×10⁻⁶ cm/s.
Molecule `CC1(C)CCC2=C(O1)c1ccccc1C(=O)C2=O` [.BETA.-LAPACHONE] displayed a Papp of less than 1 ×10⁻⁶ cm/s.
On the same count and under the same terms, then `O=C(O)c1cc(N(Cc2ccccc2O)Cc2ccccc2O)ccc1O` [L[…]], with 5.9 ×10⁻⁶ cm/s; and `CC1=C[C@H]2[C@@]3(O)[C@H](C)[C@@H](O)[C@]4(O)[C@H]([C@@H]3C=C(CO)C[C@]2(O)C1=O)C4(C)C` [PHORBOL], with less than 1 ×10⁻⁶ cm/s.
The same measure, in the same setting: then `O=C(Nc1ccccc1C(=O)O)c1ccccc1` [[…] B], with 1.9 ×10⁻⁶ cm/s; and `Nc1ccn([C@@H]2O[C@H](CO)[C@@H](OP(=O)(O)O)[C@H]2O)c(=O)n1` [3'-CMP], with less than 1 ×10⁻⁶ cm/s.
On the same count and under the same terms, the same measure for `Nc1ncnc2c1ncn2[C@@H]1O[C@H](CO)C[C@H]1O` [CORDYCEPIN]: less than 1 ×10⁻⁶ cm/s; for `CNCC/C=C/c1cccnc1` [RIVANICLINE]: 7.1 ×10⁻⁶ cm/s; for `CC/C=C\C/C=C\C/C=C\C/C=C\C/C=C\CCCC(=O)OCC` [ICOSAPENT ETHYL]: less than 1 ×10⁻⁶ cm/s.
The molecule `CO[C@H]1[C@@H](O)[C@@H](C)O[C@H](O[C@H]2[C@H](Oc3cccc4c(O)c5c(=O)oc6ccc(C)c7c(=O)oc(c34)c5c67)O[C@H](C)[C@H](O)[C@@H]2O)[C@@H]1O` [CHARTREUSIN] yielded a Papp of 4 ×10⁻⁶ cm/s.
Still for that read-out and setting: then `Cc1cc(=O)oc2cc(O)ccc12` [HYMECROMONE], with 9.9 ×10⁻⁶ cm/s; and `O=c1c(-c2ccc(O)cc2)coc2c([C@@H]3O[C@H](CO)[C@@H](O)[C@H](O)[C@H]3O)c(O)ccc12` [PUERARIN], with less than 1 ×10⁻⁶ cm/s; and `C[n+]1cc2c3c(ccc2c2ccc4cc5c(cc4c21)OCO5)OCO3` [SANGUINARIUM CHLORIDE], with less than 1 ×10⁻⁶ cm/s.
Same read-out and setting: the same measure for `C=C1CC[C@H](O)C/C1=C/C=C1\CCC[C@]2(C)[C@@H]([C@H](C)CCCC(C)C)CC[C@@H]12` [CHOLECALCIFEROL]: less than 1 ×10⁻⁶ cm/s; for `COc1cc2c(cc1O)C[C@@H]1NCCc3cc(OC)c(OC)c-2c31` [LAUROTETANINE]: less than 1 ×10⁻⁶ cm/s; for `COC1=C[C@@H]2[C@@H]3Cc4ccc(OC)c(O)c4[C@]2(CCN3C)CC1=O` [SINOMENINE]: 2.2 ×10⁻⁶ cm/s.
The same measure, in the same setting: the same measure for `O=C(O)/C=C/c1ccccc1` [CINNAMIC ACID]: less than 1 ×10⁻⁶ cm/s; for `Cc1ncsc1CCO` [HEMINEURINE]: less than 1 ×10⁻⁶ cm/s.
Molecule `COc1ccc(O[C@@H]2O[C@H](CO)[C@H](O)[C@H](O)[C@H]2O)cc1` [4-METHOXYPHENYL .BETA.-D-GLUCOSIDE] gave a Papp of 1.3 ×10⁻⁶ cm/s.
The same measure, in the same setting: then `O=c1ccn([C@H]2C[C@H](O)[C@@H](CO)O2)c(=O)[nH]1` [DEOXYURIDINE], with less than 1 ×10⁻⁶ cm/s.
As for `O=C(O)c1ccc2c(c1)OCO2` [PIPERONYLIC ACID], the Papp was less than 1 ×10⁻⁶ cm/s.
The same measure, in the same setting: the same measure for `CCC/C=C/C/C=C/C=C/C=N/NN=O` [TRIACSIN C]: 8.1 ×10⁻⁶ cm/s.
`COC(=O)/C=C/C(C)=C/C=C/C(C)=C/C=C/C=C(C)/C=C/C=C(C)/C=C/C(=O)O` [ISOBIXIN] had a Papp of 4.2 ×10⁻⁶ cm/s.
Still for that read-out and setting: then `CC1=C(/C=C/C(C)=C/C=C/C(C)=C/C=C/C=C(C)/C=C/C=C(C)/C=C/C2=C(C)CCCC2(C)C)C(C)(C)CCC1` [BETA CAROTENE], with 9.2 ×10⁻⁶ cm/s.
Same read-out and setting: the same measure for `Oc1ccc2c(c1)OC[C@]1(O)Cc3cc(O)c(O)cc3[C@H]21` [BRAZILIN]: 1.9 ×10⁻⁶ cm/s; for `Cn1c(=O)[nH]c2ncn(C)c2c1=O` [PARAXANTHINE]: less than 1 ×10⁻⁶ cm/s.
On the same count and under the same terms, then `O=C(O)/C=C/c1ccc(O)c(O)c1` [CAFFEIC ACID], with less than 1 ×10⁻⁶ cm/s; and `COc1cccc2c1cc([N+](=O)[O-])c1c(C(=O)O)cc3c(c12)OCO3` [ARISTOLOCHIC ACID], with less than 1 ×10⁻⁶ cm/s.
Regarding `COC1=C[C@@H]2C3=C([C@@H]2C1=O)[C@@H](NC(C)=O)CCc1cc(OC)c(OC)c(OC)c13` [β-Lumicolchicine], the Papp turned out to be 3.6 ×10⁻⁶ cm/s.

The same data set, now with this note: PAMPA, PAMPA-BBB Pe, Table S2: compounds exhibiting moderate to high PAMPA-BBB permeability.
Molecule `COc1cc(C2c3cc4c(c(O)c3CC3COC(=O)C32)OCO4)cc(OC)c1O` (stereo not drawn) [.ALPHA.-PELTATIN A] returned a Papp of 14 ×10⁻⁶ cm/s.
The same measure, in the same setting: then `O=[N+]([O-])c1c(Cl)cccc1-c1c[nH]cc1Cl` [PYRROLNITRIN], with 159 ×10⁻⁶ cm/s; and `COC(=O)C1=CO[C@@H](C)[C@@H]2CN3CCc4c([nH]c5ccccc45)[C@@H]3C[C@H]12` [TETRAHYDROALSTONINE], with more than 530 ×10⁻⁶ cm/s.
The same measure, in the same setting: the same measure for `OCc1c[nH]c2ccccc12` [INDOLE-3-CARBINOL]: 94 ×10⁻⁶ cm/s; for `O=c1c(-c2ccc(O)cc2)coc2cc(O[C@@H]3O[C@H](CO)[C@@H](O)[C@H](O)[C@H]3O)cc(O)c12` [GENISTIN]: 29 ×10⁻⁶ cm/s.
On the same count and under the same terms, then `O=C1c2ccccc2-n2c1nc1ccccc1c2=O` [[…]], with 141 ×10⁻⁶ cm/s.
On to `CC1=C[C@H](O)CC(C)(C)[C@H]1/C=C/C(C)=C/C=C/C(C)=C/C=C/C=C(C)/C=C/C=C(C)/C=C/C1=C(C)C[C@@H](O)CC1(C)C` [XANTOFYL], for which the Papp is 28 ×10⁻⁶ cm/s.
On the same count and under the same terms, the same measure for `CC(C)(O)[C@H]1O[C@H]2CC[C@@]3(C)[C@@](O)(CC[C@H]4Cc5c([nH]c6ccccc56)[C@@]43C)C2=CC1=O` [PAXILLINE]: 161 ×10⁻⁶ cm/s; for `COc1cc(/C=C/c2ccccc2)oc(=O)c1` [DEMETHOXYYANGONIN]: 186 ×10⁻⁶ cm/s; for `C=C[C@H]1CN2CC[C@@]3(C(=O)Nc4ccccc43)[C@@H]2C[C@@H]1/C(=C\OC)C(=O)OC` [ISOCORYNOXEINE]: 37 ×10⁻⁶ cm/s.
On the same count and under the same terms, then `COc1cc(-c2oc3cc(O)ccc3c(=O)c2O)ccc1O` [GERALDOL], with 124 ×10⁻⁶ cm/s.
Same read-out and setting: the same measure for `O=C(/C=C/c1ccc(O)cc1)c1ccc(O)cc1O` [TRIHYDROXYCHALCONE]: 169 ×10⁻⁶ cm/s.
Molecule `COc1ccc(-c2cc(=O)c3c(O)c(OC)c(OC)cc3o2)cc1O` [EUPATORIN] returned a Papp of 281 ×10⁻⁶ cm/s.
Still for that read-out and setting: the same measure for `C=C[C@H]1CN2CCc3c([nH]c4ccccc34)[C@H]2C[C@@H]1/C(=C\OC)C(=O)OC` [HIRSUTEINE]: 118 ×10⁻⁶ cm/s; for `CC(=O)[C@@]1(O)CC[C@H]2[C@@H]3CCC4=CC(=O)CC[C@]4(C)[C@H]3CC[C@@]21C` [HYDROXYPROGESTERONE]: 110 ×10⁻⁶ cm/s.
The molecule `CC[C@H]1CN2CC[C@H]1C[C@@H]2[C@@H](O)c1ccnc2ccc(OC)cc12` [HYDROQUINIDINE HYDROCHLORIDE] had a Papp of 37 ×10⁻⁶ cm/s.
On the same count and under the same terms, then `Cc1ccc2c(c1)C(=O)c1ccccc1C2=O` [.BETA.-METHYLANTHRAQUINONE], with 26 ×10⁻⁶ cm/s; and `CCOC(=O)c1c(C)cc(O)cc1O` [ETHYL ORSELLINATE], with 137 ×10⁻⁶ cm/s.
Same read-out and setting: the same measure for `C[C@]12CC[C@H](O)C[C@H]1CC[C@@H]1[C@@H]2CC[C@]2(C)[C@@H](c3ccc(=O)oc3)C[C@H]3O[C@]132` [BUFOGENIN]: 115 ×10⁻⁶ cm/s; for `CCOC(=O)/C=C/c1ccccc1` [ETHYL CINNAMATE]: 110 ×10⁻⁶ cm/s.
The same measure, in the same setting: the same measure for `CCOC(=O)c1ccc(O)cc1` [ETHYL HYDROXYBENZOATE]: 43 ×10⁻⁶ cm/s.
`CN1CC[C@]23c4ccccc4N[C@H]1[C@]21CCN(C)[C@H]3Nc2ccccc21` [[…]] displayed a Papp of 23 ×10⁻⁶ cm/s.
For `CC1=C2[C@H]3OC(=O)[C@@H](C)[C@@H]3CC[C@@]2(C)C=CC1=O` [SANTONINUM], the Papp was found to be 49 ×10⁻⁶ cm/s.
Still for that read-out and setting: then `COc1ccc(-c2cc(=O)c3c(OC)c(OC)c(OC)cc3o2)cc1OC` [SINENSETIN], with 36 ×10⁻⁶ cm/s; and `CC1=CCCC(C)(C)C12CCC(C)O2` (centres unmarked) [T[…]], with 141 ×10⁻⁶ cm/s.
`Oc1ccc(C2=Cc3ccc(O)cc3OC2)cc1` [IDRONOXIL]: the Papp worked out at 145 ×10⁻⁶ cm/s.
For the molecule `O=c1c(O)c(-c2ccccc2)oc2ccccc12` [FLAVONOL], the apparent permeability coefficient (Papp) came to 181 ×10⁻⁶ cm/s.
Turning to `O=C1NC(=O)C(c2c[nH]c3ccccc23)=C1c1c[nH]c2ccccc12` [BISINDOLYLMALEIMIDE], the Papp is more than 654 ×10⁻⁶ cm/s.
